{"source": "patent US20240000880A1", "about": "“A PHARMACEUTICAL COMPOSITION FOR PREVENTING AND TREATING LUNG INJURY, A PREPARATION METHOD THEREFOR AND A USE THEREOF” (priority 2020, published 2024)", "origin": "cited, not measured here", "test_system": "rats with chronic obstructive pulmonary disease", "settings": "rats with COPD; previous studies"}
{"compound": "Oc1ccc(C=Cc2cc(O)cc(O)c2)cc1", "note": "[resveratrol]", "values": [{"measurement": "antioxidant efficacy on chronic obstructive pulmonary disease", "value": "has antioxidant efficacy"}, {"measurement": "lung function", "value": "can improve lung function to some extent"}]}
